Reference: patent publication US20240317721A1, “PYRAZOLYL DERIVATIVES AS INHIBITORS OF THE KRAS MUTANT PROTEIN” (NOVARTIS AG, priority 2021, published 2024)

Target: KRasG12C (M1-K169, biotinylated on the N-terminus) (Homo sapiens (Human), UniProt P01116, G12C)
Assay: Covalent competition assay: scintillation proximity assay (SPA) quantifying covalent modification of KRASG12C
Format: binding
Details: competition with radiolabeled covalent probe (Compound B/Compound A), 2 hours incubation, 10 nM KRasG12C
Procedure, shortened: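 Test compounds compete with a radiolabeled covalent probe for modification of N-terminally biotinylated KRasG12C(M1-K169):GDP, final 10 nM protein, 25 nM radio-ligand, 475 nM unlabelled ligand, 2 h with agitation in 20 mM Tris-HCl pH 7.5, 150 mM NaCl, 0.1 mM MgCl2, 0.01% Tween-20.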

| IC50 [nM] | Compound |
| --- | --- |
| 35 | C=CC(=O)N1CC2(CC(n3nc(N4CCN(C(=O)OC)CC4(C)C)c(-c4c(Cl)c(C)cc5[nH]ncc45)c3C)C2)C1 (single isomer, unassigned) [Example 125b, methyl 4-(1-(2-acryloyl-2-azaspiro[3.3]heptan-6-yl)-4-(5-chloro-6-methyl-1H-indazol-4-yl)-5-methyl-1H-pyrazol-3-yl)-3,3-dimethylpiperazine-1-carboxylate] |
| > 50000 | C=CC(=O)N1CC2(CC(n3nc(N4CCN(S(C)(=O)=O)CC4(C)C)c(-c4c(Cl)c(C)cc5[nH]ncc45)c3C)C2)C1 (single isomer, unassigned) [Example 126a, 1-(6-(4-(5-chloro-6-methyl-1H-indazol-4-yl)-3-(2,2-dimethyl-4-(methylsulfonyl)piperazin-1-yl)-5-methyl-1H-pyrazol-1-yl)-2-azaspiro[3.3]heptan-2-yl)prop-2-en-1-one] |
| 170 | C=CC(=O)N1CC2(CC(n3nc(N4CCN(S(C)(=O)=O)CC4(C)C)c(-c4c(Cl)c(C)cc5[nH]ncc45)c3C)C2)C1 (single isomer, unassigned) [Example 126b, 1-(6-(4-(5-chloro-6-methyl-1H-indazol-4-yl)-3-(2,2-dimethyl-4-(methylsulfonyl)piperazin-1-yl)-5-methyl-1H-pyrazol-1-yl)-2-azaspiro[3.3]heptan-2-yl)prop-2-en-1-one] |
| 25200 | C=CC(=O)N1CC2(CC(n3nc(N4CCN(C(=O)C5CC5)CC4(C)C)c(-c4c(Cl)c(C)cc5[nH]ncc45)c3C)C2)C1 (single isomer, unassigned) [Example 127a, 1-(6-(4-(5-chloro-6-methyl-1H-indazol-4-yl)-3-(4-(cyclopropanecarbonyl)-2,2-dimethylpiperazin-1-yl)-5-methyl-1H-pyrazol-1-yl)-2-azaspiro[3.3]heptan-2-yl)prop-2-en-1-one] |
| 20 | C=CC(=O)N1CC2(CC(n3nc(N4CCN(C(=O)C5CC5)CC4(C)C)c(-c4c(Cl)c(C)cc5[nH]ncc45)c3C)C2)C1 (single isomer, unassigned) [Example 127b, 1-(6-(4-(5-chloro-6-methyl-1H-indazol-4-yl)-3-(4-(cyclopropanecarbonyl)-2,2-dimethylpiperazin-1-yl)-5-methyl-1H-pyrazol-1-yl)-2-azaspiro[3.3]heptan-2-yl)prop-2-en-1-one] |
| > 50000 | C=CC(=O)N1CC2(CC(n3nc(N4CCN(C(=O)C(F)F)CC4(C)C)c(-c4c(Cl)c(C)cc5[nH]ncc45)c3C)C2)C1 (single isomer, unassigned) [Example 128a, 1-(6-(4-(5-chloro-6-methyl-1H-indazol-4-yl)-3-(4-(2,2-difluoroacetyl)-2,2-dimethylpiperazin-1-yl)-5-methyl-1H-pyrazol-1-yl)-2-azaspiro[3.3]heptan-2-yl)prop-2-en-1-one] |
| 54 | C=CC(=O)N1CC2(CC(n3nc(N4CCN(C(=O)C(F)F)CC4(C)C)c(-c4c(Cl)c(C)cc5[nH]ncc45)c3C)C2)C1 (single isomer, unassigned) [Example 128b, 1-(6-(4-(5-chloro-6-methyl-1H-indazol-4-yl)-3-(4-(2,2-difluoroacetyl)-2,2-dimethylpiperazin-1-yl)-5-methyl-1H-pyrazol-1-yl)-2-azaspiro[3.3]heptan-2-yl)prop-2-en-1-one] |
| 32 | C=CC(=O)N1CC2(CC(n3nc(N4CCN(C(=O)N(C)C)CC4(C)C)c(-c4c(Cl)c(C)cc5[nH]ncc45)c3C)C2)C1 (single isomer, unassigned) [Example 129a, 4-(1-(2-acryloyl-2-azaspiro[3.3]heptan-6-yl)-4-(5-chloro-6-methyl-1H-indazol-4-yl)-5-methyl-1H-pyrazol-3-yl)-N,N,3,3-tetramethylpiperazine-1-carboxamide] |
| 1200 | C=CC(=O)N1CC2(CC(n3nc(N4CCN(C(=O)N(C)C)CC4(C)C)c(-c4c(Cl)c(C)cc5[nH]ncc45)c3C)C2)C1 (single isomer, unassigned) [Example 129b, 4-(1-(2-acryloyl-2-azaspiro[3.3]heptan-6-yl)-4-(5-chloro-6-methyl-1H-indazol-4-yl)-5-methyl-1H-pyrazol-3-yl)-N,N,3,3-tetramethylpiperazine-1-carboxamide] |
| > 5000 | C=CC(=O)N1CC2(CC(n3nc(N4CCN(C5CCOCC5)CC45CCC5)c(-c4c(Cl)c(C)cc5[nH]ncc45)c3C)C2)C1 (single isomer, unassigned) [Example 130a, 1-(6-(4-(5-Chloro-6-methyl-1H-indazol-4-yl)-5-methyl-3-(8-(tetrahydro-2H-pyran-4-yl)-5,8-diazaspiro[3.5]nonan-5-yl)-1H-pyrazol-1-yl)-2-azaspiro[3.3]heptan-2-yl)prop-2-en-1-one] |
| 32 | C=CC(=O)N1CC2(CC(n3nc(N4CCN(C5CCOCC5)CC45CCC5)c(-c4c(Cl)c(C)cc5[nH]ncc45)c3C)C2)C1 (single isomer, unassigned) [Example 130b, 1-(6-(4-(5-Chloro-6-methyl-1H-indazol-4-yl)-5-methyl-3-(8-(tetrahydro-2H-pyran-4-yl)-5,8-diazaspiro[3.5]nonan-5-yl)-1H-pyrazol-1-yl)-2-azaspiro[3.3]heptan-2-yl)prop-2-en-1-one] |
| > 5000 | C=CC(=O)N1CC2(CC(n3nc(N4CCN(C(C)C)CC45CCC5)c(-c4c(Cl)c(C)cc5[nH]ncc45)c3C)C2)C1 (single isomer, unassigned) [Example 131a, 1-(6-(4-(5-chloro-6-methyl-1H-indazol-4-yl)-3-(8-isopropyl-5,8-diazaspiro[3.5]nonan-5-yl)-5-methyl-1H-pyrazol-1-yl)-2-azaspiro[3.3]heptan-2-yl)prop-2-en-1-one] |
| 76 | C=CC(=O)N1CC2(CC(n3nc(N4CCN(C(C)C)CC45CCC5)c(-c4c(Cl)c(C)cc5[nH]ncc45)c3C)C2)C1 (single isomer, unassigned) [Example 131b, 1-(6-(4-(5-chloro-6-methyl-1H-indazol-4-yl)-3-(8-isopropyl-5,8-diazaspiro[3.5]nonan-5-yl)-5-methyl-1H-pyrazol-1-yl)-2-azaspiro[3.3]heptan-2-yl)prop-2-en-1-one] |
| 697 | C=CC(=O)N1CC2(CC(n3nc(N4CCN(C5CCOC5)CC45CCC5)c(-c4c(Cl)c(C)cc5[nH]ncc45)c3C)C2)C1 (single isomer, unassigned) [Example 132a, 1-(6-(4-(5-chloro-6-methyl-1H-indazol-4-yl)-5-methyl-3-(8-(tetrahydrofuran-3-yl)-5,8-diazaspiro[3.5]nonan-5-yl)-1H-pyrazol-1-yl)-2-azaspiro[3.3]heptan-2-yl)prop-2-en-1-one] |
| 4500 | C=CC(=O)N1CC2(CC(n3nc(N4CCN(C5CCOC5)CC45CCC5)c(-c4c(Cl)c(C)cc5[nH]ncc45)c3C)C2)C1 (single isomer, unassigned) [Example 132b, 1-(6-(4-(5-chloro-6-methyl-1H-indazol-4-yl)-5-methyl-3-(8-(tetrahydrofuran-3-yl)-5,8-diazaspiro[3.5]nonan-5-yl)-1H-pyrazol-1-yl)-2-azaspiro[3.3]heptan-2-yl)prop-2-en-1-one] |
| 24 | C=CC(=O)N1CC2(CC(n3nc(N4CCN(C5CCOC5)CC45CCC5)c(-c4c(Cl)c(C)cc5[nH]ncc45)c3C)C2)C1 (single isomer, unassigned) [Example 132c, 1-(6-(4-(5-chloro-6-methyl-1H-indazol-4-yl)-5-methyl-3-(8-(tetrahydrofuran-3-yl)-5,8-diazaspiro[3.5]nonan-5-yl)-1H-pyrazol-1-yl)-2-azaspiro[3.3]heptan-2-yl)prop-2-en-1-one] |
| 29 | C=CC(=O)N1CC2(CC(n3nc(N4CCN(C5CCOC5)CC45CCC5)c(-c4c(Cl)c(C)cc5[nH]ncc45)c3C)C2)C1 (single isomer, unassigned) [Example 132d, 1-(6-(4-(5-chloro-6-methyl-1H-indazol-4-yl)-5-methyl-3-(8-(tetrahydrofuran-3-yl)-5,8-diazaspiro[3.5]nonan-5-yl)-1H-pyrazol-1-yl)-2-azaspiro[3.3]heptan-2-yl)prop-2-en-1-one] |
| 1600 | C=CC(=O)N1CC2(CC(n3nc(N4CCN(C5COC5)C[C@]4(C)CC)c(-c4c(Cl)c(C)cc5[nH]ncc45)c3C)C2)C1 (single isomer, unassigned) [Example 133a] |
| 5 | C=CC(=O)N1CC2(CC(n3nc(N4CCN(C5COC5)C[C@]4(C)CC)c(-c4c(Cl)c(C)cc5[nH]ncc45)c3C)C2)C1 (single isomer, unassigned) [Example 133b] |
| > 5000 | C=CC(=O)N1CC2(CC(n3nc(N4CCN(C5CCOCC5)CC4(C)C)c(-c4c(Cl)c(C)cc5[nH]ncc45)c3C)C2)C1 (single isomer, unassigned) [Example 134a, 1-(6-(4-(5-chloro-6-methyl-1H-indazol-4-yl)-3-(2,2-dimethyl-4-(tetrahydro-2H-pyran-4-yl)piperazin-1-yl)-5-methyl-1H-pyrazol-1-yl)-2-azaspiro[3.3]heptan-2-yl)prop-2-en-1-one] |
| 46 | C=CC(=O)N1CC2(CC(n3nc(N4CCN(C5CCOCC5)CC4(C)C)c(-c4c(Cl)c(C)cc5[nH]ncc45)c3C)C2)C1 (single isomer, unassigned) [Example 134b, 1-(6-(4-(5-chloro-6-methyl-1H-indazol-4-yl)-3-(2,2-dimethyl-4-(tetrahydro-2H-pyran-4-yl)piperazin-1-yl)-5-methyl-1H-pyrazol-1-yl)-2-azaspiro[3.3]heptan-2-yl)prop-2-en-1-one] |
| > 5000 | C=CC(=O)N1CC2(CC(n3nc(N4CCN(C5CC6(COC6)C5)CC45CCC5)c(-c4c(Cl)c(C)cc5[nH]ncc45)c3C)C2)C1 (single isomer, unassigned) [Example 135a, 1-(6-(3-(8-(2-oxaspiro[3.3]heptan-6-yl)-5,8-diazaspiro[3.5]nonan-5-yl)-4-(5-chloro-6-methyl-1H-indazol-4-yl)-5-methyl-1H-pyrazol-1-yl)-2-azaspiro[3.3]heptan-2-yl)prop-2-en-1-one] |
